Test results taken from article PMC2788921 (Biochemistry, 2009).

Key:
[1] = target: benzoylformate decarboxylase (BFDC) (Pseudomonas putida, UniProt P20906); assay: stopped-flow PDA transient kinetics; type: binding
benzaldehyde lyase (BAL) = benzaldehyde lyase (BAL) (Pseudomonas fluorescens, UniProt P51853); assay: CD titration of purified BAL; type: binding
Sequence of benzaldehyde lyase (BAL) (P51853 whole entry): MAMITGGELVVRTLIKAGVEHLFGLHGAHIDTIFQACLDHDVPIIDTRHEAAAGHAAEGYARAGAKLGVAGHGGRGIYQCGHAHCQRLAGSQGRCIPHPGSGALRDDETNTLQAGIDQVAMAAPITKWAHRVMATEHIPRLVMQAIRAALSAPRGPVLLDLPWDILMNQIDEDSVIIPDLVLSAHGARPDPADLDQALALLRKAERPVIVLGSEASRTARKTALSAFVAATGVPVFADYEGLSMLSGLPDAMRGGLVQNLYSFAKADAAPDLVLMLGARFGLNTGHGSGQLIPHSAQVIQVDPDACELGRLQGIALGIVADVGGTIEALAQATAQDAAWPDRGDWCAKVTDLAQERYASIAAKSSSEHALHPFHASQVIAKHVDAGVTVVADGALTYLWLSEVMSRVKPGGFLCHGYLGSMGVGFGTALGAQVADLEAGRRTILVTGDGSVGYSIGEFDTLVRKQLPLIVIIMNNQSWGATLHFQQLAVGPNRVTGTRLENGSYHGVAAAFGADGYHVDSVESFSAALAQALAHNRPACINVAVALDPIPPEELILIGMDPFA

Sequence of benzoylformate decarboxylase (BFDC) (P20906 whole entry): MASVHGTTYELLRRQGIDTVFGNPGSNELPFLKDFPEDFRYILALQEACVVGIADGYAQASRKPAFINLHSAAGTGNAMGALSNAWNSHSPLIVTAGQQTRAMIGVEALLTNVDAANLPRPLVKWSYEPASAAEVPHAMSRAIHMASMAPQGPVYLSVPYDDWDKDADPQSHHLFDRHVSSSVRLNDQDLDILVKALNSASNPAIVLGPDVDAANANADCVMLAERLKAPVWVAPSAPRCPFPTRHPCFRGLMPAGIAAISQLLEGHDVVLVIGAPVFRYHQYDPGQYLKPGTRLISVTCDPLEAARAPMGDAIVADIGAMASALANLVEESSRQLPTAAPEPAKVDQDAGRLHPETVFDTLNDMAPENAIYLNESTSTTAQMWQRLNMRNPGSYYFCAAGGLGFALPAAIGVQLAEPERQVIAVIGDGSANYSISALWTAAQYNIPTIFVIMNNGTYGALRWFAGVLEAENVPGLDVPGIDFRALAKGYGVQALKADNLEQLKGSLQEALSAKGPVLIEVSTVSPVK

Compound | Kd [1] | Kd (benzaldehyde lyase (BAL))
O=C(O)C(=O)/C=C/c1cccnc1 [3-PKB, (E)-2-oxo-4-(pyridin-3-yl)but-3-enoic acid] | 340 µM | 
O=C/C=C/c1cccnc1 [PAA, (E)-3-(pyridin-3-yl)acrylaldehyde] |  | 21.4 ± 1.98 µM
